Values of other authors in patent US10307441B2, “Pharmaceutical formulations of nitrite and uses thereof” (Board of Supervisors of Louisiana State University and …, priority 2009, dated 2019).

[1] = assumed mid-range PK constant for simulation

O=NO [NaNO2, Sodium nitrite]
oral bioavailability (assumed PK constant for simulation): 100% | clearance [1]: 60.375 L/h | half-life [1]: 45 min
